Calls of active or inactive are those of the source. The rule behind the calls is not given here.
Tested on: CCRIS mutagenicity, Ames/micronucleus/aberration tests
Assay: CCRIS mutagenicity studies

## CC(C)(C)NC[C@H](O)COc1nsnc1N1CCOCC1
Test System: AMES SALMONELLA TYPHIMURIUM, Strain/Indicator: TA98, Metabolic Activation: NONE, Method: STANDARD PLATE
  mutagenic call: inactive; negative
Test System: AMES SALMONELLA TYPHIMURIUM, Strain/Indicator: TA98, Metabolic Activation: RAT, LIVER, S-9, AROCLOR 1254, Method: STANDARD PLATE
  mutagenic call: inactive; negative
Test System: AMES SALMONELLA TYPHIMURIUM, Strain/Indicator: TA100, Metabolic Activation: NONE, Method: STANDARD PLATE
  mutagenic call: inactive; negative
Test System: AMES SALMONELLA TYPHIMURIUM, Strain/Indicator: TA100, Metabolic Activation: RAT, LIVER, S-9, AROCLOR 1254, Method: STANDARD PLATE
  mutagenic call: inactive; negative

## CCC[CH2][Sn]([CH2]CCC)([CH2]CCC)[O][Sn]([CH2]CCC)([CH2]CCC)[CH2]CCC
Test System: AMES SALMONELLA TYPHIMURIUM, Strain/Indicator: TA97, Metabolic Activation: HAMSTER, LIVER, S-9, AROCLOR 1254 (10 OR 30%), Method: PREINCUBATION
  mutagenic call: inactive; negative
Test System: AMES SALMONELLA TYPHIMURIUM, Strain/Indicator: TA97, Metabolic Activation: NONE, Method: PREINCUBATION
  mutagenic call: inactive; negative
Test System: AMES SALMONELLA TYPHIMURIUM, Strain/Indicator: TA97, Metabolic Activation: RAT, LIVER, S-9, AROCLOR 1254 (10 OR 30%), Method: PREINCUBATION
  mutagenic call: inactive; negative
Test System: AMES SALMONELLA TYPHIMURIUM, Strain/Indicator: TA98, Metabolic Activation: HAMSTER, LIVER, S-9, AROCLOR 1254 (10 OR 30%), Method: PREINCUBATION
  mutagenic call: inactive; negative
Test System: AMES SALMONELLA TYPHIMURIUM, Strain/Indicator: TA98, Metabolic Activation: NONE, Method: PREINCUBATION
  mutagenic call: inactive; negative
Test System: AMES SALMONELLA TYPHIMURIUM, Strain/Indicator: TA98, Metabolic Activation: NONE, Method: SUSPENSION/PLATE
  mutagenic call: inactive; negative
Test System: AMES SALMONELLA TYPHIMURIUM, Strain/Indicator: TA98, Metabolic Activation: RAT, LIVER, S-9, AROCLOR 1254 (10 OR 30%), Method: PREINCUBATION
  mutagenic call: inactive; negative
Test System: AMES SALMONELLA TYPHIMURIUM, Strain/Indicator: TA100, Metabolic Activation: HAMSTER, LIVER, S-9, AROCLOR 1254 (10 OR 30%), Method: PREINCUBATION
  mutagenic call: inactive; negative
Test System: AMES SALMONELLA TYPHIMURIUM, Strain/Indicator: TA100, Metabolic Activation: NONE, Method: PREINCUBATION
  mutagenic call: inactive; negative
Test System: AMES SALMONELLA TYPHIMURIUM, Strain/Indicator: TA100, Metabolic Activation: NONE, Method: SUSPENSION/PLATE
  mutagenic call: inactive; negative
Test System: AMES SALMONELLA TYPHIMURIUM, Strain/Indicator: TA100, Metabolic Activation: RAT, LIVER, S-9, AROCLOR 1254 (10 OR 30%), Method: PREINCUBATION
  mutagenic call: inactive; negative
Test System: AMES SALMONELLA TYPHIMURIUM, Strain/Indicator: TA1535, Metabolic Activation: HAMSTER, LIVER, S-9, AROCLOR 1254 (10 OR 30%), Method: PREINCUBATION
  mutagenic call: inactive; negative
Test System: AMES SALMONELLA TYPHIMURIUM, Strain/Indicator: TA1535, Metabolic Activation: NONE, Method: PREINCUBATION
  mutagenic call: inactive; negative
Test System: AMES SALMONELLA TYPHIMURIUM, Strain/Indicator: TA1535, Metabolic Activation: RAT, LIVER, S-9, AROCLOR 1254 (10 OR 30%), Method: PREINCUBATION
  mutagenic call: inactive; negative

## CCNc1nc(Cl)nc(NC(C)(C)C#N)n1
End Point: In vitro chromosomal aberrations, Test System: Human lymphocytes, Metabolic Activation: None
  mutagenic call: inactive; negative for aberrations but cell cycle delay at 250 and 350 ug/ml doses
End Point: In vitro chromosomal aberrations, Test System: Human lymphocytes, Metabolic Activation: Rat, liver, S-9, Aroclor 1254
  mutagenic call: inactive; negative
Test System: Ames Salmonella typhimurium, Strain/Indicator: TA97a, Metabolic Activation: None, Method: Plate incorporation
  mutagenic call: inactive; negative, cytotoxicity at highest dose.
Test System: Ames Salmonella typhimurium, Strain/Indicator: TA97a, Metabolic Activation: Rat, liver, S-9, Aroclor 1254, Method: Plate incorporation
  mutagenic call: inactive; negative, cytotoxicity at highest dose.
Test System: Ames Salmonella typhimurium, Strain/Indicator: TA98, Metabolic Activation: None, Method: Plate incorporation
  mutagenic call: inactive; negative, cytotoxicity at highest dose.
Test System: Ames Salmonella typhimurium, Strain/Indicator: TA98, Metabolic Activation: Rat, liver, S-9, Aroclor 1254, Method: Plate incorporation
  mutagenic call: inactive; negative, cytotoxicity at highest dose.
Test System: Ames Salmonella typhimurium, Strain/Indicator: TA100, Metabolic Activation: None, Method: Plate incorporation
  mutagenic call: inactive; negative, cytotoxicity at highest dose.
Test System: Ames Salmonella typhimurium, Strain/Indicator: TA100, Metabolic Activation: Rat, liver, S-9, Aroclor 1254, Method: Plate incorporation
  mutagenic call: inactive; negative, cytotoxicity at highest dose.
Test System: Ames Salmonella typhimurium, Strain/Indicator: TA1535, Metabolic Activation: None, Method: Plate incorporation
  mutagenic call: inactive; negative, cytotoxicity at highest dose.
Test System: Ames Salmonella typhimurium, Strain/Indicator: TA1535, Metabolic Activation: Rat, liver, S-9, Aroclor 1254, Method: Plate incorporation
  mutagenic call: inactive; negative, cytotoxicity at highest dose.
Test System: UDS HUMAN PERIPHERAL BLOOD LYMPHOCYTES, Strain/Indicator: THY INCORP, Metabolic Activation: NONE, Method: LIQUID SCINTILLATION
  mutagenic call: inactive; negative
Test System: UDS HUMAN PERIPHERAL BLOOD LYMPHOCYTES, Strain/Indicator: THY INCORP, Metabolic Activation: RAT, LIVER, S-9, PHENOBARBITAL AND BETA-NAPHTHOFLAVONE, Method: LIQUID SCINTILLATION
  mutagenic call: inactive; negative
Test System: UDS rat primary hepatocytes, Strain/Indicator: Thymidine incorporation, Metabolic Activation: None, Method: Autoradiography
  mutagenic call: active; positive at >/= 1 um
